Reference: patent US9238039B2, “Pyrazolo[1,5-A]pyrimidines for antiviral treatment” (Gilead Sciences, Inc., priority 2010, dated 2016)

These compounds were tested on RSV strain A2 (assay: RSV antiviral cytoprotection assay in Hep2 cells (96-well and 384-well format, Cell TiterGlo read-out)). Details: human respiratory syncytial virus, HEp-2, 0.5 uM; RSV-induced cytopathic effect in Hep2 cells; calculated from fitted dose response curve, normalized to 0% and 100%.
Assay type: cell-based, Respiratory Syncytial Virus (RSV)

Compound	inhibition at 0.5 µM
Cc1cn2nc([C@@H]3CCCCN3C(=O)c3cnc(Cl)cn3)cc2nc1N1CC[C@H](N)C1 [Compound 309]	100%
Cc1cn2nc([C@@H]3CCCCN3C(=O)c3ncc(F)cc3F)cc2nc1N1CC[C@H](N)C1 [Compound 310]	100%
Cc1cn2nc([C@@H]3CCCCN3C(=O)c3cn4ccccc4n3)cc2nc1N1CC[C@H](N)C1 [Compound 311]	100%
Cc1cn2nc([C@@H]3CCCCN3C(=O)c3cc4ccccn4n3)cc2nc1N1CC[C@H](N)C1 [Compound 312]	100%
Cc1cn2nc([C@@H]3CCCCN3C(=O)c3ccc(C4CC4)cc3)cc2nc1N1CC[C@H](N)C1 [Compound 313]	100%
Cc1cn2nc([C@@H]3CCCCN3C(=O)c3sccc3Cl)cc2nc1N1CC[C@H](N)C1 [Compound 314]	100%
Cc1cn2nc([C@@H]3CCCCN3C(=O)c3cc4ncccn4n3)cc2nc1N1CC[C@H](N)C1 [Compound 315]	100%
Cc1cn2nc([C@@H]3CCCCN3C(=O)c3cccc4nnnn34)cc2nc1N1CC[C@H](N)C1 [Compound 316]	100%
Cc1cn2nc([C@@H]3CCCCN3C(=O)c3cccc4c3OCC4)cc2nc1N1CC[C@H](N)C1 [Compound 317]	100%
CC(=O)c1cccc(C(=O)N2CCCC[C@H]2c2cc3nc(N4CC[C@H](N)C4)c(C)cn3n2)c1 [Compound 318]	100%
CCOc1cccc(C(=O)N2CCCC[C@H]2c2cc3nc(N4CC[C@H](N)C4)c(C)cn3n2)c1 [Compound 319]	100%
COc1c(C)cccc1C(=O)N1CCCC[C@H]1c1cc2nc(N3CC[C@H](N)C3)c(C)cn2n1 [Compound 320]	100%
COCc1ccc(C(=O)N2CCCC[C@H]2c2cc3nc(N4CC[C@H](N)C4)c(C)cn3n2)cc1 [Compound 321]	100%
COc1ccc(C(=O)N2CCCC[C@H]2c2cc3nc(N4CC[C@H](N)C4)c(C)cn3n2)c(C)c1 [Compound 322]	100%
CCOc1ccccc1C(=O)N1CCCC[C@H]1c1cc2nc(N3CC[C@H](N)C3)c(C)cn2n1 [Compound 323]	100%
COc1cccc(C(=O)N2CCCC[C@H]2c2cc3nc(N4CC[C@H](N)C4)c(C)cn3n2)c1O [Compound 325]	98%
Cc1cn2nc([C@@H]3CCCCN3C(=O)c3cc(C)c(F)c(C)c3)cc2nc1N1CC[C@H](N)C1 [Compound 326]	100%
Cc1cn2nc([C@@H]3CCCCN3C(=O)c3cn4ccsc4n3)cc2nc1N1CC[C@H](N)C1 [Compound 327]	100%
Cc1cn2nc([C@@H]3CCCCN3C(=O)c3cc(C(C)C)nn3C)cc2nc1N1CC[C@H](N)C1 [Compound 328]	99%
CCCn1nc(C)cc1C(=O)N1CCCC[C@H]1c1cc2nc(N3CC[C@H](N)C3)c(C)cn2n1 [Compound 329]	98%
COc1cc(F)ccc1C(=O)N1CCCC[C@H]1c1cc2nc(N3CC[C@H](N)C3)c(C)cn2n1 [Compound 330]	68%
Cc1cn2nc([C@@H]3CCCCN3C(=O)c3cccc(Cl)c3C)cc2nc1N1CC[C@H](N)C1 [Compound 331]	99%
Cc1ccc(C(=O)N2CCCC[C@H]2c2cc3nc(N4CC[C@H](N)C4)c(C)cn3n2)cc1Cl [Compound 332]	100%
Cc1cc(Cl)ccc1C(=O)N1CCCC[C@H]1c1cc2nc(N3CC[C@H](N)C3)c(C)cn2n1 [Compound 333]	99%

Same assay, conditions: human respiratory syncytial virus, HEp-2, RSV-induced cytopathic effects, Hep2 cells; class symbols

Compound	EC50
Cc1cn2nc([C@@H]3CCCCN3C(=O)c3cnc(Cl)cn3)cc2nc1N1CC[C@H](N)C1 [Compound 309]	0.1 to 100 nM
Cc1cn2nc([C@@H]3CCCCN3C(=O)c3ncc(F)cc3F)cc2nc1N1CC[C@H](N)C1 [Compound 310]	0.1 to 100 nM
Cc1cn2nc([C@@H]3CCCCN3C(=O)c3cn4ccccc4n3)cc2nc1N1CC[C@H](N)C1 [Compound 311]	0.1 to 100 nM
Cc1cn2nc([C@@H]3CCCCN3C(=O)c3cc4ccccn4n3)cc2nc1N1CC[C@H](N)C1 [Compound 312]	0.1 to 100 nM
Cc1cn2nc([C@@H]3CCCCN3C(=O)c3ccc(C4CC4)cc3)cc2nc1N1CC[C@H](N)C1 [Compound 313]	0.1 to 100 nM
Cc1cn2nc([C@@H]3CCCCN3C(=O)c3sccc3Cl)cc2nc1N1CC[C@H](N)C1 [Compound 314]	0.1 to 100 nM
Cc1cn2nc([C@@H]3CCCCN3C(=O)c3cc4ncccn4n3)cc2nc1N1CC[C@H](N)C1 [Compound 315]	0.1 to 100 nM
Cc1cn2nc([C@@H]3CCCCN3C(=O)c3cccc4nnnn34)cc2nc1N1CC[C@H](N)C1 [Compound 316]	0.1 to 100 nM
Cc1cn2nc([C@@H]3CCCCN3C(=O)c3cccc4c3OCC4)cc2nc1N1CC[C@H](N)C1 [Compound 317]	0.1 to 100 nM
CC(=O)c1cccc(C(=O)N2CCCC[C@H]2c2cc3nc(N4CC[C@H](N)C4)c(C)cn3n2)c1 [Compound 318]	0.1 to 100 nM
CCOc1cccc(C(=O)N2CCCC[C@H]2c2cc3nc(N4CC[C@H](N)C4)c(C)cn3n2)c1 [Compound 319]	0.1 to 100 nM
COc1c(C)cccc1C(=O)N1CCCC[C@H]1c1cc2nc(N3CC[C@H](N)C3)c(C)cn2n1 [Compound 320]	0.1 to 100 nM
COCc1ccc(C(=O)N2CCCC[C@H]2c2cc3nc(N4CC[C@H](N)C4)c(C)cn3n2)cc1 [Compound 321]	0.1 to 100 nM
COc1ccc(C(=O)N2CCCC[C@H]2c2cc3nc(N4CC[C@H](N)C4)c(C)cn3n2)c(C)c1 [Compound 322]	0.1 to 100 nM
CCOc1ccccc1C(=O)N1CCCC[C@H]1c1cc2nc(N3CC[C@H](N)C3)c(C)cn2n1 [Compound 323]	0.1 to 100 nM
COc1cccc(C(=O)N2CCCC[C@H]2c2cc3nc(N4CC[C@H](N)C4)c(C)cn3n2)c1O [Compound 325]	0.1 to 100 nM
Cc1cn2nc([C@@H]3CCCCN3C(=O)c3cc(C)c(F)c(C)c3)cc2nc1N1CC[C@H](N)C1 [Compound 326]	0.1 to 100 nM
Cc1cn2nc([C@@H]3CCCCN3C(=O)c3cn4ccsc4n3)cc2nc1N1CC[C@H](N)C1 [Compound 327]	0.1 to 100 nM
Cc1cn2nc([C@@H]3CCCCN3C(=O)c3cc(C(C)C)nn3C)cc2nc1N1CC[C@H](N)C1 [Compound 328]	0.1 to 100 nM
CCCn1nc(C)cc1C(=O)N1CCCC[C@H]1c1cc2nc(N3CC[C@H](N)C3)c(C)cn2n1 [Compound 329]	0.1 to 100 nM
COc1cc(F)ccc1C(=O)N1CCCC[C@H]1c1cc2nc(N3CC[C@H](N)C3)c(C)cn2n1 [Compound 330]	101 to 1000 nM
Cc1cn2nc([C@@H]3CCCCN3C(=O)c3cccc(Cl)c3C)cc2nc1N1CC[C@H](N)C1 [Compound 331]	0.1 to 100 nM
Cc1ccc(C(=O)N2CCCC[C@H]2c2cc3nc(N4CC[C@H](N)C4)c(C)cn3n2)cc1Cl [Compound 332]	0.1 to 100 nM
Cc1cc(Cl)ccc1C(=O)N1CCCC[C@H]1c1cc2nc(N3CC[C@H](N)C3)c(C)cn2n1 [Compound 333]	0.1 to 100 nM
